According to US10485772B2, “Compositions for modulating cancer stem cells and uses therefor” (University of Canberra, priority 2014, dated 2019):

Tests used:
[1] = tested on: PKC-θ chromatin association at CSC inducible gene promoters (uPAR, CD44); assay: ChIP assay with anti-PKC-θ antibodies in MCF-IM model; format: cell-based, human
Description: Between 1-5×10^6 Cells were harvested following various treatments according to the experimental requirement and re-suspended in 10 mL DMEM completer media at room temperature after counting then at Vi-CELL counter. Cells were then cross linked with freshly prepared 1% paraformaldehyde (PFA) (Analytical UNIVAR, Seattle, Wash.) for 10 minutes at room temperature with continuous but slow rotations on rotary wheel. Next, the reaction was quenched by the addition of 2M glycine solution (AnalaR, Merck, Darmstadt, Germany) to a get a final concentration of 125 mM and mixed further for 10 minutes at room temperature on the rotary wheel. Cells were then washed three times with 10 mL ice cold PBS and the cell pellet was either snap frozen on dry ice or used immediately afterwards. SDS Lysis Buffer (Upstate Biotechnology, Billerica, Mass.) was prepared by addition of 1× complete protease inhibitor solution (1 tablet dissolved in 1 mL DEPC water) (Roche Diagnostics, Mannheim, Germany) and cell pellet was then re-suspended in 250 μL of the in the SDS lysis buffer for 10 minutes at room temperature. Cells were sonicated (10 sec pulses for 2 minutes on 1 liter ice cold water mixed with ice, 70% maximum output) to shear the chromatin to obtain an average DNA fragment size of 250-500 bp using a Cole Palmer Ultrasonic processor (Cole Plamer, Vernon Hills, Ill.). […]

[2] = tested on: MCF-7 cells (mammospheres); assay: Mammosphere assay in MCF-IM model; format: cell-based, human; details: bisindolylmaleimide-I 1 μM for 1 hr prior to PMA for 6 days
Description: The following mammosphere culture media components were purchased from StemCell Technologies Inc., BC, Canada: Mammocult Basal medium (Human) (catalogue number-05621), Mammocult Proliferation Supplements (Human) (catalogue number-05622), heparin (catalogue number-07904) and hydrocortisone (catalogue number-[…]). Hydrocortisone powder was freshly dissolved into mammocult basal medium to get 10^−4M solution on the day of experiment. 50 mL of
Mammocult complete media was then prepared by addition of 45 mL Mammocult basal medium, 5 mL mammocult proliferation supplements, 100 μL of the 0.2% heparin stock, 500 μL of 10^−4M stock of hydrocortisone and 50 μL of the PNS. Mammocult complete media was either used on same day or stored for not more than 7 days at 4° C.
MCF-7 cells were grown in a 175 cm^2 cell culture flask and harvested using a cell scraper (Zellschaber, Switzerland) or FACS sorted as specified below. Importantly trypsin treatment was never used for harvesting cells as it interferes with the mammosphere assay. Harvested cells were then re-suspended in 1 mL mammocult complete media and centrifuged at 500×g for 3 minutes at 20° C. The cell pellet was then re-suspended in 1 mL mammocult complete media before counting the cells on the Vi-CELL counter. Cell dilutions were then prepared to stain 40,000 cells/2 mL and 2 mL of cells were seeded in the 6 well-ultra low adherent, flat bottom plates (Costar, Corning Inc, Corning, N.Y., USA). Cells were either stimulated or not treated according to the experimental protocol and incubated at 37° C., under 5% CO2 for 7 days in a Hepa-Filtered Infrared (IR) Incubator (Forma Scientific Inc., Materietta, Ohio). Mammospheres larger than 60 μm were counted per well on day 7 and pictures were taken with an Olympus microscope. All the mammosphere assays were performed in duplicate wells and the entire procedure was repeated at least twice.
Mammosphere culture media components were purchased from StemCell Technologies and mammosphere assays were performed as recommended by the manufacturer's guidelines. Briefly, 40,000 cells/2 ml cell dilutions were then prepared and 2 ml of cells were seeded in the 6 well-ultralow adherent, flat bottom plates (Costar). Mammospheres larger than 60 μm were counted per well on day 7 and pictures were taken.

CN(C)CCCn1cc(C2=C(c3c[nH]c4ccccc34)C(=O)NC2=O)c2ccccc21 [bisindolylmaleimide-I]
PKC-θ chromatin association across the uPAR promoter (ChIP) ([1]; MCF-IM model, bisindolylmaleimide-I 1 μM for 1 hr, then PMA for 60 hours): reduces its chromatin association across the uPAR promoter
binding of PKC-θ on the CD44 gene promoter (ChIP) ([1]; as worded in Example 13): reduction of binding of PKC-θ on the CD44 gene promoter
mammosphere formation [2]: reduce mammosphere formation
mammosphere formation ([2]; listed as Broad spectrum PKC pathway inhibitor): inhibition of EMT and CSC formation
